According to ChEMBL document CHEMBL1201862, “PubChem BioAssay data set” (2004):
Structures can show the parent of a compound that is named as a salt. Activity calls are given as the source filed them.

Columns and labels:
[1] = potency of ADAM10 substrate cleavage blockers – biochemical, QFRET, dose response (AID 743254);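 note: ADAM10 enzyme with the DM2 quenched FRET peptide as substrate; EDANS fluorescence gain as the protease cuts the substrate; inhibitor potency against ADAM10 proteolytic activity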
[2] = inhibition of ADAM10 peptide cleavage – biochemical, FRET peptide substrate, recombinant human ADAM10, selectivity assay for ADAM17 exosite inhibitor project, dose response (AID 743259);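 note: ADAM10 enzyme cleaving a FRET peptide substrate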
[3] = target: T1, Beta-2 adrenergic receptor (Homo sapiens, UniProt P07550); assay: ADRB2 activation measured by internalization – cell-based, FAP fluorogen, flow cytometry, cherry pick 1, dose response (AID 588763); type: functional
[4] = target: T1, Beta-2 adrenergic receptor; assay: Dose response for HTS for Beta-2AR agonists via FAP method from Powderset3.; type: functional
[5] = viability inhibitors of stage V gametocytes – luminescence, dose response (AID 1117278); type: functional, cell-based;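 note: gametocytes exposed to compound for 24 hours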
[6] = test system: Streptococcus; assay: GAS UMAA2166 growth inhibition – luminescence, BacTiterGlo, counter-screen for streptokinase expression inhibitor project, dose response (AID 1915); type: functional, organism-based;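 note: potency for reduction of bacterial viability or growth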
[7] = test system: Streptococcus sp. 'group A'; assay: Streptococcus pyogenes SK(-)GAS viability under kanamycin – luminescence, BacTiterGlo, confirmation, counter-screen for streptokinase expression inhibitor project, dose response (AID 1900); type: functional, organism-based
[8] = viability loss in human Jurkat cells – cell-based, luminescence, cytotoxicity control for P. falciparum gametocyte viability project, dose response (AID 1117277); type: functional;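 note: potency reflects loss of cellular ATP meaning fewer viable cells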
[9] = target: T2, Streptokinase A (Streptococcus pyogenes serotype M1, UniProt P10520); assay: viability-normalized secreted streptokinase activity reduction – plasminogen activation absorbance, OD405, dose response (AID 1914); type: functional, Streptococcus pyogenes M1 GAS;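 note: secreted streptokinase activity via plasminogen activation per viability signal from cell pellet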
T2 sequence (P10520 whole entry): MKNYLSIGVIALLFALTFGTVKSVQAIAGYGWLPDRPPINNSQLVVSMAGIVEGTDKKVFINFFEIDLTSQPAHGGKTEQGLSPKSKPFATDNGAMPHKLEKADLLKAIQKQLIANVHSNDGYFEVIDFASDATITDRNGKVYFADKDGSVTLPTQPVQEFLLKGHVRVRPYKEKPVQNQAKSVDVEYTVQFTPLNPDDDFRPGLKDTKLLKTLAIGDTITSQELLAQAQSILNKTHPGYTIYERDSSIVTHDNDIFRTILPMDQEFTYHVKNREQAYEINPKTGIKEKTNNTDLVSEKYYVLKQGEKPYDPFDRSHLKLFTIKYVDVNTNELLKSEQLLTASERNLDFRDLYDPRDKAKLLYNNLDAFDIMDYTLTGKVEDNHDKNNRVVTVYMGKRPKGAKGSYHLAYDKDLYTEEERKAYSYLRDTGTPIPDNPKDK

[10] = viability of uninfected HEp-2 cells – cell-based, HTS, cytotoxicity control for RSV inhibitor project, dose response (AID 2410); type: functional; conditions: human respiratory syncytial virus
[11] = target: Potassium channel subfamily K member 3 (Homo sapiens, UniProt O14649); assay: inhibition of human KCNK3 channel flux – CHO cells, FluxOR thallium flux, SAR follow-up (AID 652212); type: functional
[12] = Luminescence-based cell-based high throughput dose response assay to identify activators of the DAF-12 from the parasite S. stercoralis (ssDAF-12).; type: functional
[13] = target: T3, Oxysterols receptor LXR-beta (Homo sapiens, UniProt P55055); assay: LXR agonists, Gal4 luciferase reporter, dose response, counter-screen for ssDAF-12 agonist project, cell-based, luminescence, HEK293, S. stercoralis campaign (AID 720737); type: functional; conditions: read-out: IC50 (the source's name)
T3 sequence (P55055 whole entry): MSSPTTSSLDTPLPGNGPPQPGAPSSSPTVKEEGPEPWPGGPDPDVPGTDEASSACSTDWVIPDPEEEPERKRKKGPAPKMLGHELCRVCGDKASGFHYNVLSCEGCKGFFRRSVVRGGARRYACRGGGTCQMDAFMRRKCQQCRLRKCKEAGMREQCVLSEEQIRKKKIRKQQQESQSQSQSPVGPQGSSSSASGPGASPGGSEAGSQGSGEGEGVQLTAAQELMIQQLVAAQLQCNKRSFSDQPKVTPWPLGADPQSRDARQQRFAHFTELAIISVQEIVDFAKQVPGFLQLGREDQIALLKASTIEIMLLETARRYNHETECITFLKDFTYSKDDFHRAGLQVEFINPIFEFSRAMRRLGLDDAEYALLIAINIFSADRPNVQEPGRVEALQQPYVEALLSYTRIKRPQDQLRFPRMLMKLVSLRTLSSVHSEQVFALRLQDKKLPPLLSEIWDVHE

[14] = blockers of HIV-1 envelope-mediated cell-cell fusion – cherry-pick, dose response (AID 652057); type: functional, cell-based
[15] = target: Paired box protein Pax-8 (Homo sapiens, UniProt Q06710); assay: PAX8 transcriptional activity inhibition in RMG-I – RMG-I cells, luciferase, cherry-pick, dose response (AID 687027); type: functional, cell-based;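 note: luciferase reporter driven by Pax8 target thyroperoxidase promoter measured by SteadyGlo luminescence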
[16] = HIV-1 AD8 envelope cell-cell fusion blockers – cherry-pick, dose response (AID 652062); type: functional, cell-based;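 note: luciferase signal from cell-cell fusion driven by HIV-1 clade B AD8 Env; potency is for inhibitors of fusion seen as a drop in luminescence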
[17] = OVCAR-3 cell viability loss – plate reader, dry powder samples, PAX8 inhibitor project, dose response (AID 743044); type: functional, cell-based
[18] = general mammalian cell viability loss – activator set, cherry-pick, cytotoxicity control for miR-122 modulator project, dose response (AID 720690); type: functional, cell-based;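 note: HEK293T human cells scored for general mammalian cytotoxicity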
[19] = OVCAR8 cell viability loss – plate reader, dry powder samples, PAX8 project, dose response (AID 743197); type: functional, cell-based; conditions: OVCAR-8
[20] = target: Potassium channel subfamily K member 9 (Homo sapiens, UniProt Q9NPC2); assay: KCNK9 flux blockade, concentration-response – cell-based, FluxOR thallium flux, selectivity assay for TASK1 inhibitor project, SAR follow-up (AID 652211); type: functional;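 note: potency is for inhibitors of the channel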
[21] = target: Disintegrin and metalloproteinase domain-containing protein 17 (Homo sapiens, UniProt P78536); assay: exosite inhibitors of ADAM17, dose response, biochemical (AID 743260)
[22] = cells; type: functional, cell-based
[23] = cells; type: functional, cell-based; remark: listed apart in the source
[24] = target: T4, Trace amine-associated receptor 1 (Homo sapiens, UniProt Q96RJ0); assay: Counterscreen for agonists of the human trace amine associated receptor 1 (hTAAR1): Fluorescence-based cell-based high throughput dose response assay to identify hTAAR1 agonist that also desensitize TAAR1 receptor response.; type: functional
T4 sequence (Q96RJ0 whole entry): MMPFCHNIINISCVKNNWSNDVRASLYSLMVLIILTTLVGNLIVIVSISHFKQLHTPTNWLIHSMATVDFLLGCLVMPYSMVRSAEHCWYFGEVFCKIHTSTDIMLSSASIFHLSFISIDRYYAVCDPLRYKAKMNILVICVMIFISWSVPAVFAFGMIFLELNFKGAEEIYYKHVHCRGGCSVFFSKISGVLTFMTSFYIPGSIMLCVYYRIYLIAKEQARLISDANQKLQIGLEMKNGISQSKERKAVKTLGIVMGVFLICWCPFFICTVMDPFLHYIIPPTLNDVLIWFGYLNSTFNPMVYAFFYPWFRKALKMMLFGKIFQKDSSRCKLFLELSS

[25] = target: T4, Trace amine-associated receptor 1; assay: Fluorescence-based cell-based high throughput dose response assay to identify agonists of the human trace amine associated receptor 1 (TAAR1).; type: functional
[26] = blockers of HIV-1 ZM109 envelope-driven cell-cell fusion – HeLa effector, CEM target cells, luciferase, cherry-pick, dose response (AID 652058); type: functional, cell-based;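 note: luciferase signal from HIV-1 Env mediated cell-cell fusion of effector and target cells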
[27] = test system: HEK293; assay: EBV LMP1 TES2 canonical NF-kB signalling blockers – cell-based, HEK293, luciferase, cherry-pick, dose response (AID 588343); type: functional; conditions: Homo sapiens
[28] = off-target signal loss in HeLa-CEM21 co-culture – HeLa F-luc CTL cells, cherry-picked, counter-screen for HIV-1 Env fusion inhibitor project, dose response (AID 652040); type: functional, cell-based;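 note: potency for signal decrease marking cytotoxic or nonspecific inhibition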
[29] = test system: INS1; assay: INS-1E survival protection against cytokine death – cell-based, luminescence, retest, dose response (AID 449756); type: functional; conditions: Rattus norvegicus;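 note: cell death triggered by IL-1 beta plus TNF-alpha plus IFN-gamma mixture; protective hits raise ATP signal compared with cytokine alone wells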
[30] = viability loss in CEM21 cells – cell-based, CellTiter-Glo luminescence, cherry-picked, cytotoxicity control for viral fusion inhibitor project, dose response (AID 652042); type: functional;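 note: potency for signal decrease meaning cytotoxicity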
[31] = T. cruzi growth inhibition in host cells, dose response, cell-based, plate reader, dry powder, set 2 (AID 652275); type: functional
[32] = anti-trypanosomal activity in BESM host cells – imaging, CA-I/72 strain, bovine embryo skeletal muscle, dry powder, dose response (AID 651885); type: functional, cell-based
[33] = intracellular Trypanosoma cruzi inhibitors in host cells – cell-based, plate reader, cherry-pick samples, set 3, dose response (AID 651818); type: functional;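 note: compounds incubated with infected cells for about four days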
[34] = Trypanosoma cruzi replication inhibitors in host cells – cell-based, plate reader, dry powder samples, dose response (AID 651845); type: functional
[35] = target: T3, Oxysterols receptor LXR-beta; type: functional, cell-based
[36] = cells

T1 sequence (P07550 whole entry): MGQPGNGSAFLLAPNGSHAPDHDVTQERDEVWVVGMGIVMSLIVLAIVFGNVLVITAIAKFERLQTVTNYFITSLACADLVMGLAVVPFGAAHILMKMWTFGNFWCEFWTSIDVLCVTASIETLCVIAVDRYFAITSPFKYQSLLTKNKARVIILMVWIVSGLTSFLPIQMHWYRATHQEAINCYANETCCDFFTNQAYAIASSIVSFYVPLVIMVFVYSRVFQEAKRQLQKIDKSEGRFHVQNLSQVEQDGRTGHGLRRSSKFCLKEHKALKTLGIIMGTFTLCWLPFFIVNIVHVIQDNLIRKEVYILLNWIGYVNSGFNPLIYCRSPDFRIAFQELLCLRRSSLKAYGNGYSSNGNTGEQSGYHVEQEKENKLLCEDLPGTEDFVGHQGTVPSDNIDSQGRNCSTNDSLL
Disintegrin and metalloproteinase domain-containing protein 17, sequence (P78536 whole entry, the tested form may be a part): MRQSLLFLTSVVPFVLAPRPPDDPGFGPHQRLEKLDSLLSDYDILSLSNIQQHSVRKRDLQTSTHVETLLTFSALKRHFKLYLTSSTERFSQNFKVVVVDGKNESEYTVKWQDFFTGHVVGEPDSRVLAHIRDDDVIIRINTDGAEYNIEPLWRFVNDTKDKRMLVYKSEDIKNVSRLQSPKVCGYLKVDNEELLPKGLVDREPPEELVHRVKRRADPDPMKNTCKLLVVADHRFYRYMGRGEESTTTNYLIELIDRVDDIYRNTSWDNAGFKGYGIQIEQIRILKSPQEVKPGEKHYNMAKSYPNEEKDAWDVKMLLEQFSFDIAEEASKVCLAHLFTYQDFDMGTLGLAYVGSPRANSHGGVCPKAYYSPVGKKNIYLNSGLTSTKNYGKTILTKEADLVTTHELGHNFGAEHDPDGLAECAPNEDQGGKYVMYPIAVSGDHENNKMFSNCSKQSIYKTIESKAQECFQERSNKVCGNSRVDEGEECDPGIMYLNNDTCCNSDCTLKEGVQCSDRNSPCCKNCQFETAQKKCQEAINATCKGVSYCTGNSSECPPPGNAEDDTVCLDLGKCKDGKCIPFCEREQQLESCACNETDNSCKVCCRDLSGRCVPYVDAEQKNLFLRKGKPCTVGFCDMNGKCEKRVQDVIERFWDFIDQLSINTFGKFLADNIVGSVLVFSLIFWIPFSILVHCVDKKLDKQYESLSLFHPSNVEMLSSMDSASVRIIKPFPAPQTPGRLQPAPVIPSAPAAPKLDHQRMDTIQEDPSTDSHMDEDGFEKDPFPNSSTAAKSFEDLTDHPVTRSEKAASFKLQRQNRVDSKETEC
Paired box protein Pax-8, sequence (Q06710 whole entry, the tested form may be a part): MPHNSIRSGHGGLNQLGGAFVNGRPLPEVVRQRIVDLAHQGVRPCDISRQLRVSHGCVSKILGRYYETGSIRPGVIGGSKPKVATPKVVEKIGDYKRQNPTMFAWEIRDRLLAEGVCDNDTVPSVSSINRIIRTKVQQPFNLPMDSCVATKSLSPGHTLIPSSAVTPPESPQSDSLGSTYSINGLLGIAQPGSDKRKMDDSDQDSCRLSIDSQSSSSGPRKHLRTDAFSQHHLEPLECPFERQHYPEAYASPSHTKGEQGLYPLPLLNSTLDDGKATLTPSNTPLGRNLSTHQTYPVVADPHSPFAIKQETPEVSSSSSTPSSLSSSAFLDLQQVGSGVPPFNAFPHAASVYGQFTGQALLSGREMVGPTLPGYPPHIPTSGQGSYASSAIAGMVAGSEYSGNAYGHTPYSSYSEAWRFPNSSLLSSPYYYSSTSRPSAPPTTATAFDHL
Potassium channel subfamily K member 3, sequence (O14649 whole entry): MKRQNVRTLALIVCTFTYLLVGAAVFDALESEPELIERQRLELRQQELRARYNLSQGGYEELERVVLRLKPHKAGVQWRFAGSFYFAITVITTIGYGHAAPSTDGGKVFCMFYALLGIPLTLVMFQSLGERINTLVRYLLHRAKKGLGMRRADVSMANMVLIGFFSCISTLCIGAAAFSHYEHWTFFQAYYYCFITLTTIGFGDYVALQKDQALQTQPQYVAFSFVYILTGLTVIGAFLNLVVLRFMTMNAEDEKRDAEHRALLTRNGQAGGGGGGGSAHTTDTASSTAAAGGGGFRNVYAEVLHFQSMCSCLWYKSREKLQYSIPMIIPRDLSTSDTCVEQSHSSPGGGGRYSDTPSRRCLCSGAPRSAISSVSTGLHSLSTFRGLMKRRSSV
Potassium channel subfamily K member 9, sequence (Q9NPC2 whole entry, the tested form may be a part): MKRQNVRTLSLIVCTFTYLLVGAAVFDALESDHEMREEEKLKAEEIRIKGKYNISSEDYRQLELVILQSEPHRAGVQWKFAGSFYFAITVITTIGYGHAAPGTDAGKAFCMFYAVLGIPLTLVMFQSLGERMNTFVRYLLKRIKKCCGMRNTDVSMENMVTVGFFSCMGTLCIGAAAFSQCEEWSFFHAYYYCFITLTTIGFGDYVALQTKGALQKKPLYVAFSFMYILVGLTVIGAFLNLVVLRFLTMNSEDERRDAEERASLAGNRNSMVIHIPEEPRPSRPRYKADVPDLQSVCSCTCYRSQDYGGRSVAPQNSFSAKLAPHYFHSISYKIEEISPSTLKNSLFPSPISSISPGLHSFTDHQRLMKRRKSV

CNC(=O)[C@@H](NC(=O)[C@H](CC(C)C)[C@H](O)C(=O)NO)C(C)(C)C
IC50 [1]: 0.0607 µM (active)
IC50 [2]: 0.0358 µM (active)

CC(Oc1ccc(Cl)cc1Cl)c1nc(-c2ccc(NC(=O)c3ccco3)cc2)no1 (configuration not stated)
EC50 [3]: 7.06 µM (active)
EC50 [4]: 0.204 µM (active)
IC50 [5]: > 109 µM (inactive)
EC50 [6]: 25.7 µM (active)
EC50 [7]: 21.7 µM (active)
IC50 [8]: > 83.3 µM (inactive)
EC50 [9]: > 150 µM (not active)
CC50 [10]: 20.2 µM (active)

O=C(Nc1cccc(NC(=O)c2ccccc2)c1)c1ccccc1
IC50 [11]: 0.024 µM (active)

O=C(CSc1nc2nncc-2c(O)[nH]1)Nc1nccs1
IC50 [12]: > 67.6 µM (inactive)
EC50 [13]: > 67.6 µM (inactive)

COc1ccc(S(=O)(=O)Nc2ccc3c(c2)CC(=O)N([C@@H](C)CO)C[C@@H](C)[C@H](CN(C)Cc2ccc(C(F)(F)F)cc2)O3)cc1
AC50 [14]: 13.4 µM (active)
AC50 [15]: 6.77 µM (active)
AC50 [16]: 18.5 µM (active)
AC50 [17]: 24.4 µM (active)
AC50 [18]: 25.5 µM (active)
AC50 [19]: 29.5 µM (active)

Cc1cccc(C(=O)Nc2cccc(NC(=O)c3ccccc3C(F)(F)F)c2)c1
IC50 [20]: 12.9 µM (active)

O=C(Nc1cccc(Cl)c1)OCCOCCOC(=O)Nc1cccc(Cl)c1
IC50 [21]: > 69.4 µM (inactive)
IC50 [2]: 12.9 µM (inactive)

c1ccc(CC2=NCCN2)cc1 [TOLAZOLINE HYDROCHLORIDE]
EC50 [22]: > 29.9 µM (inactive)
IC50 [23]: > 29.9 µM (inactive)
IC50 [24]: 4.74 µM (active)
EC50 [25]: 1.01 µM (active)

O=C1CCCCC1Sc1nnc(-c2ccc3c(c2)OCO3)o1 (configuration not stated)
AC50 [14]: 2.73 µM (active)
AC50 [26]: 41.9 µM (active)
AC50 [27]: 0.841 µM (active)
AC50 [16]: 6.84 µM (active)
AC50 [28]: 12.3 µM (active)

CCCCCCn1c(=O)c(C(=O)Nc2ncccc2C)c(O)c2ccccc21
AC50 [14]: 5.24 µM (active)
AC50 [29]: 7.92 µM (active)
AC50 [26]: 3.78 µM (active)
EC50 [6]: 1.98 µM (active)
AC50 [16]: 4.02 µM (active)
EC50 [7]: 0.566 µM (active)
AC50 [28]: 5.77 µM (active)
AC50 [30]: 28.6 µM (active)

C[C@@H]1CN([C@H](C)CO)C(=O)c2cccc(NC(=O)c3ccncc3)c2O[C@H]1CN(C)Cc1ccc(C(F)(F)F)cc1
AC50 [31]: 0.0647 µM (active)
IC50 [32]: 0.048 µM (active)
AC50 [33]: 0.344 µM (active)
AC50 [34]: 0.0597 µM (active)

CC(C)(C)NC(=O)C(c1cc2ccccc2o1)n1c(-c2ccc(-c3ccccc3)cc2)nc2ccccc21 (configuration not stated)
EC50 [35]: > 67.6 µM (inactive)
EC50 [36]: > 67.6 µM (inactive)
IC50 [12]: > 67.6 µM (inactive)
EC50 [13]: > 67.6 µM (inactive)

O=C(Cc1nnc(NC(=O)Nc2ccccc2)s1)NCc1ccccc1
EC50 [22]: > 29.9 µM (inactive)
IC50 [23]: > 29.9 µM (inactive)
IC50 [24]: > 29.9 µM (inactive)
EC50 [25]: > 29.9 µM (inactive)

C[C@H](NC(=O)c1nc[nH]c1C(=O)NC(c1ccccc1)c1ccccc1)C(=O)OCc1ccccc1
IC50 [21]: > 69.5 µM (inactive)
